Reference: PMC9325490, “Overcoming Multidrug Resistance (MDR): Design, Biological Evaluation and Molecular Modelling Studies of 2,4‐Substituted Quinazoline Derivatives” (Chemmedchem, 2022)
Entries after “also recorded” stand apart in the source; their conditions may differ.

How the values were obtained:
[1] = molecular target: T1, P-gp (Homo sapiens, UniProt P08183); assay: ATP cell depletion (ATPlite assay) in MDCK-MDR1 cells; details: Yes/No
Description: In addition, the P‐gp interacting profile of the new compounds was evaluated by the combination of the inhibition of the efflux of calcein‐AM in MDCK‐MDR1 cells test with other two assays: the apparent permeability (Papp ) determination in the Caco‐2 cell monolayer, and the ATP cell depletion in MDCK‐MDR1 cells. […] This last information is completed by the ATP cell depletion assay, which measures the total ATP cell level in the MDCK cells overexpressing only P‐gp: in this setting, the observed effect can be mainly ascribed to the overexpressed transporter.[42]
The MDCK‐MDR1 cells seeded into 96‐well microplate in 100 μL of complete medium at a density 2×10^4 cells/well were incubated overnight (O/N) in a humidified atmosphere 5 % CO2 at 37 °C. The medium was removed and 100 μL of complete medium either alone or containing different concentrations of test compounds were added. The plate was incubated for 2 h in a humidified 5 % CO2 atmosphere at 37 °C. 50 μL of mammalian cell lysis solution was added to all wells and the plate shaken for five minutes in an orbital shaker. 50 μL of substrate solution was added to all wells and the plate shaken for five minutes in an orbital shaker. The plate was dark adapted for ten minutes and the luminescence was measured.

[2] = molecular target: T1, P-gp; assay: Calcein-AM transport inhibition in MDCK-MDR1 cells; details: for EC50 P-gp: MDCK-MDR1 cells overexpressing P-gp, calcein-AM, mean ±SEM of two experiments in triplicate
Description: (§2) The new compounds were tested for their activity toward P‐gp and the other two MDR sister proteins, MRP1 and BCRP, by measuring the inhibition of the transport of the profluorescent probe calcein‐AM (P‐gp and MRP1 substrate) in cells overexpressing P‐gp and MRP1 (MDCK‐MDR1 and MDCK‐MRP1 cells, respectively) and of the fluorescent probe Hoechst 33342 (BCRP substrate) in cells overexpressing BCRP (MDCK‐BCRP cells).
Each cell line (30,000 cells per well) was seeded into black CulturePlate 96/wells plate with 100 μL medium and allowed to become confluent overnight. 100 μL of test compounds, solubilized in culture medium, were added to monolayers, with final concentrations ranging from 0.1 to 100 μM. Thus, after a 30 min incubation time at 37 °C, calcein‐AM was added in 100 μL of Phosphate Buffered Saline (PBS) to the 96/wells plate to yield a final concentration of 2.5 μM; the plate was then incubated for 30 min. Each well was washed 3 times with ice cold PBS and saline buffer was added to each well and the plate read with Victor3 (PerkinElmer) at excitation and emission wavelengths of 485 nm and 535 nm, respectively. In these experimental conditions, calcein cell accumulation in the absence and in the presence of tested compounds was evaluated and fluorescence basal level was estimated with untreated cells. In treated wells, the increase of fluorescence with respect to basal level was measured. EC50 values were determined by fitting the fluorescence increase percentage versus log[dose].

[3] = system: P-gp; assay: Apparent permeability (Papp, BA/AB) in Caco-2 cell monolayer; details: human, Caco-2, P app (BA/AB), two experiments in duplicate
Description: (§3) Compounds displaying a BA/AB >2 but not inducing an ATP cell depletion are classified as class IIB3 substrates.[43]
(§4) Caco‐2 cells were seeded onto a Millicell assay system (Millipore), in which a cell monolayer was set in between a filter cell and a receiver plate at a density of 20000 cells/well. The culture medium was replaced every 48 h, and the cells were kept for 21 days in culture. The trans epithelial electrical resistance (TEER) of the monolayers was measured daily, before and after the experiment, by using an epithelial voltohmmeter (Millicell‐ERS). Generally, TEER values greater than 1000 Ω for a 21 day culture are considered optimal.
(§5) After 21 days of Caco‐2 cell growth, the medium was removed from the filter wells and from the receiver plate, and they were filled with fresh Hank's balanced salt solution (HBSS) buffer (Invitrogen). This procedure was repeated twice, and the plates were incubated at 37 °C for 30 min. After the incubation time, the HBSS buffer was removed, and drug solutions and reference compounds were added to the filter well at a concentration of 100 μM, whereas fresh HBSS was added to the receiver plate. The plates were incubated at 37 °C for 120 min. Afterward, samples were removed from the apical (filter well) and basolateral (receiver plate) side of the monolayer to measure the permeability. The apparent permeability (Papp ), in units of nms‐1, was calculated by using the same equation reported above.

[4] = molecular target: T1, P-gp; assay: P-gp interacting profile (combination of calcein-AM, Papp and ATP cell depletion assays); details: classification from Papp, calcein-AM inhibition and ATP cell depletion
Description: In addition, the P‐gp interacting profile of the new compounds was evaluated by the combination of the inhibition of the efflux of calcein‐AM in MDCK‐MDR1 cells test with other two assays: the apparent permeability (Papp ) determination in the Caco‐2 cell monolayer, and the ATP cell depletion in MDCK‐MDR1 cells. […] This last information is completed by the ATP cell depletion assay, which measures the total ATP cell level in the MDCK cells overexpressing only P‐gp: in this setting, the observed effect can be mainly ascribed to the overexpressed transporter.[42] […] Compounds displaying a BA/AB >2 but not inducing an ATP cell depletion are classified as class IIB3 substrates.[43]

[5] = system: Caco-2 cell monolayer; assay: Apparent permeability (Papp, BA/AB) in Caco-2 cell monolayer; details: BA/AB ratio, two experiments in duplicate
Description: as §3, §4, §5

[6] = molecular target: MRP1 (Homo sapiens, UniProt P33527); assay: cell-based
Description: as §2
Each cell line (30,000 cells per well) was seeded into black CulturePlate 96/wells plate with 100 μL medium and allowed to become confluent overnight. 100 μL of test compounds, solubilized in culture medium, were added to monolayers, with final concentrations ranging from 0.1 to 100 μM. […] Each well was washed 3 times with ice cold PBS and saline buffer was added to each well and the plate read with Victor3 (PerkinElmer) at excitation and emission wavelengths of 485 nm and 535 nm, respectively. In these experimental conditions, calcein cell accumulation in the absence and in the presence of tested compounds was evaluated and fluorescence basal level was estimated with untreated cells. In treated wells, the increase of fluorescence with respect to basal level was measured. EC50 values were determined by fitting the fluorescence increase percentage versus log[dose].

[7] = system: HT29 cells; assay: Co-administration assay with doxorubicin (MTT) in HT29 cells; format: cell-based
Description: (§1) The co‐administration assay with Doxorubicin was performed in MDCK‐MDR1, HT29 and HT29/DX cells at 48 h as reported with minor modifications.[49] […] On day 2, the tested drug was added alone to the cells at different concentrations (10 nM, 100 nM, 500 nM, 1 μM, 10 μM). On day 3, the medium was removed and the drug at the same concentrations was added alone and in co‐administration with 10 μM Doxorubicin to the cells. After the established incubation time with the tested drug, MTT (0.5 mg/mL) was added to each well, and after 3–4 h incubation at 37 °C, the supernatant was removed. The formazan crystals were solubilized using 100 μL of DMSO/EtOH (1 : 1), and the absorbance values at 570 and 630 nm were determined on the microplate reader Victor 3 from PerkinElmer Life Sciences.

[8] = system: HT29 cells; assay: Kinetic parameters of doxorubicin efflux in HT29 cells
Description: (§6) Cells were collected and the intracellular drug content was measured fluorimetrically as detailed previously,[47] using a Synregy HTX 96‐well plate reader (Bio‐Tek Instruments, Winooski, VT). The results were expressed as nmol doxorubicin/mg cell proteins, according to a titration curve previously set. […] A second series of dishes, after the incubation with doxorubicin formulations under the same experimental conditions, were left for further 10 min at 37 °C, then washed and tested for the intracellular drug content. The difference of doxorubicin concentration between the two series, expressed as nmol doxorubicin extruded/min/mg cell protein was plotted versus the initial drugs’ concentration. Values were fitted to Michaelis‐Menten equation to calculate Vmax and Km, using the Enzfitter software (Biosoft Corporation, Cambridge, United Kingdom).[47]

[9] = system: HT29/DX cells; assay: Intracellular doxorubicin accumulation in HT29/DX cells
Description: as §6

[10] = system: HT29/DX cells; assay: Kinetic parameters of doxorubicin efflux in HT29/DX cells
Description: as §6

[11] = system: HT29 cells; assay: Intracellular doxorubicin accumulation in HT29 cells; details: 24 h, doxorubicin 10 μM + compound 100 nM-10 μM
Description: as §6

[12] = system: HT29/DX cells; assay: Co-administration assay with doxorubicin (MTT) in HT29/DX cells; format: cell-based
Description: as §1

[13] = molecular target: T2, BCRP (Homo sapiens, UniProt Q9UNQ0); assay: Hoechst 33342 transport inhibition in MDCK-BCRP cells; format: cell-based; details: MDCK-BCRP cells overexpressing BCRP, mean ±SEM
T2 construct: expressed in transfected cells; host or cells: MDCK-BCRP (Madin-Darby Canine Kidney, transfected); gift of Prof; P. Borst, NKI-AVL
T2 sequence (Q9UNQ0 1-655): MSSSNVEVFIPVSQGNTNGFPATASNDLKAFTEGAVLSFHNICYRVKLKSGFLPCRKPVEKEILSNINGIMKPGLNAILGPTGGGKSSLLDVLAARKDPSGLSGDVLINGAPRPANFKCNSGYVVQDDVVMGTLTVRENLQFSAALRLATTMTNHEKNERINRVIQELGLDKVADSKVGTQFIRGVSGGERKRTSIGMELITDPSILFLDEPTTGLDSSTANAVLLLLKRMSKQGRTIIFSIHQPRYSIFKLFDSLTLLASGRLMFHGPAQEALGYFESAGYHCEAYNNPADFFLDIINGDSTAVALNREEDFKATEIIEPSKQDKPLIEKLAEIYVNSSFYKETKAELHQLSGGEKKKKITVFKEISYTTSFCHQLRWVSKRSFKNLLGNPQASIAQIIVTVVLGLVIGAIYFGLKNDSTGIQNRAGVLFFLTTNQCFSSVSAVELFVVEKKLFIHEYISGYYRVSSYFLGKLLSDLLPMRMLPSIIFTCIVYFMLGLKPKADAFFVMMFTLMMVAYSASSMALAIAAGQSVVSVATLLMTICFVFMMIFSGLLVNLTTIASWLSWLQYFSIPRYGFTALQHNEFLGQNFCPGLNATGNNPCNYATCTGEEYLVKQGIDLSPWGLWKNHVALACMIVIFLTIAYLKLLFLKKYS
Description: Each cell line (30,000 cells per well) was seeded into black CulturePlate 96/wells plate with 100 μL medium and allowed to become confluent overnight. 100 μL of test compounds, solubilized in culture medium, were added to monolayers, with final concentrations ranging from 0.1 to 100 μM. After 30 min incubation time at 37 °C, Hoechst 33342 was added in 100 μL of Phosphate Buffered Saline (PBS) to yield a final concentration of 8 μM to the 96/wells plate and the plate incubated for 30 min. The supernatants were drained and the cells were fixed for 20 min under light protection using 100 μL per well of a 4 % PFA solution. Each well was washed 3 times with ice cold PBS and saline buffer added to each well and the plate read with Victor3 (PerkinElmer) at excitation and emission wavelengths of 340/35 nm and 485/20 nm, respectively. In these experimental conditions, Hoechst 33342 accumulation in the absence and in the presence of tested compounds was evaluated and fluorescence basal level was estimated with untreated cells. In treated wells the increase of fluorescence with respect to basal level was measured. EC50 values were determined by fitting the fluorescence increase percentage versus log[dose].

[14] = absence or presence of 10 μM compound 1 e
[15] = read-out: Km of doxorubicin efflux, absence or presence of 10 μM compound 1 e

T1 sequence (P08183 whole entry): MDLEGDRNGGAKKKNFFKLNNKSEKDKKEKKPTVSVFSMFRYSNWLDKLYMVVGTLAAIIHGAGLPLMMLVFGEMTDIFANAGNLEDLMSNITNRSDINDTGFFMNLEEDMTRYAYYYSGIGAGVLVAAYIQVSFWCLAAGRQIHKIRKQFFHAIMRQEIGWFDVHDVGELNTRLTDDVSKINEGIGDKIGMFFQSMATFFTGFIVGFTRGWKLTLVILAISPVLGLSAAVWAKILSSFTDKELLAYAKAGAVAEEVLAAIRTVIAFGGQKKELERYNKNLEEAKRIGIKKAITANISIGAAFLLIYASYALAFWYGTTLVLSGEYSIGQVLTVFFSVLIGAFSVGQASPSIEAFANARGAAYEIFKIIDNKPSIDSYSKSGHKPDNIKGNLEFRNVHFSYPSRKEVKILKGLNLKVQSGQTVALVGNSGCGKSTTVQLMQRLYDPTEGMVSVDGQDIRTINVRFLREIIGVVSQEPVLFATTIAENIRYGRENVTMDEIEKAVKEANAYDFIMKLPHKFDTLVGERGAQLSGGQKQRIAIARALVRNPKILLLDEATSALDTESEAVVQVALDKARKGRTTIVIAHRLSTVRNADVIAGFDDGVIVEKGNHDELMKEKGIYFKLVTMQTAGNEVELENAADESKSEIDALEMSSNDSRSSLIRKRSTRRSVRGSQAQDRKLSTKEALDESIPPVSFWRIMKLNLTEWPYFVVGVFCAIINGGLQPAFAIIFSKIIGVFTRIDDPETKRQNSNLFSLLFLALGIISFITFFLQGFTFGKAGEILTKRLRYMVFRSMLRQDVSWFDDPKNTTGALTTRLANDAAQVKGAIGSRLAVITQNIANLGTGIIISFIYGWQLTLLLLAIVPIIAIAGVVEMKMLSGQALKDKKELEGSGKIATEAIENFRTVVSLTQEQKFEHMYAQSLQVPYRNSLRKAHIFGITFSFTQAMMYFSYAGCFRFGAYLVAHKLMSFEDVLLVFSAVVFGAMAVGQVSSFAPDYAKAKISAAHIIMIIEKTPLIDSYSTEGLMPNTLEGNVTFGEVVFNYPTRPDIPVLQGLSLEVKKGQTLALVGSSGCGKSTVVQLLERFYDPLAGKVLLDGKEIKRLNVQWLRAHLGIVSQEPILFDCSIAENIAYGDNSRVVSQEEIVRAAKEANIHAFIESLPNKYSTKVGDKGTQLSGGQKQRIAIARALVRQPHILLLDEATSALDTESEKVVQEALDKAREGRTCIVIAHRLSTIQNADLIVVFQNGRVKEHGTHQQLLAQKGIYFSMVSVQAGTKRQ
Chain of MRP1 (P33527 whole entry): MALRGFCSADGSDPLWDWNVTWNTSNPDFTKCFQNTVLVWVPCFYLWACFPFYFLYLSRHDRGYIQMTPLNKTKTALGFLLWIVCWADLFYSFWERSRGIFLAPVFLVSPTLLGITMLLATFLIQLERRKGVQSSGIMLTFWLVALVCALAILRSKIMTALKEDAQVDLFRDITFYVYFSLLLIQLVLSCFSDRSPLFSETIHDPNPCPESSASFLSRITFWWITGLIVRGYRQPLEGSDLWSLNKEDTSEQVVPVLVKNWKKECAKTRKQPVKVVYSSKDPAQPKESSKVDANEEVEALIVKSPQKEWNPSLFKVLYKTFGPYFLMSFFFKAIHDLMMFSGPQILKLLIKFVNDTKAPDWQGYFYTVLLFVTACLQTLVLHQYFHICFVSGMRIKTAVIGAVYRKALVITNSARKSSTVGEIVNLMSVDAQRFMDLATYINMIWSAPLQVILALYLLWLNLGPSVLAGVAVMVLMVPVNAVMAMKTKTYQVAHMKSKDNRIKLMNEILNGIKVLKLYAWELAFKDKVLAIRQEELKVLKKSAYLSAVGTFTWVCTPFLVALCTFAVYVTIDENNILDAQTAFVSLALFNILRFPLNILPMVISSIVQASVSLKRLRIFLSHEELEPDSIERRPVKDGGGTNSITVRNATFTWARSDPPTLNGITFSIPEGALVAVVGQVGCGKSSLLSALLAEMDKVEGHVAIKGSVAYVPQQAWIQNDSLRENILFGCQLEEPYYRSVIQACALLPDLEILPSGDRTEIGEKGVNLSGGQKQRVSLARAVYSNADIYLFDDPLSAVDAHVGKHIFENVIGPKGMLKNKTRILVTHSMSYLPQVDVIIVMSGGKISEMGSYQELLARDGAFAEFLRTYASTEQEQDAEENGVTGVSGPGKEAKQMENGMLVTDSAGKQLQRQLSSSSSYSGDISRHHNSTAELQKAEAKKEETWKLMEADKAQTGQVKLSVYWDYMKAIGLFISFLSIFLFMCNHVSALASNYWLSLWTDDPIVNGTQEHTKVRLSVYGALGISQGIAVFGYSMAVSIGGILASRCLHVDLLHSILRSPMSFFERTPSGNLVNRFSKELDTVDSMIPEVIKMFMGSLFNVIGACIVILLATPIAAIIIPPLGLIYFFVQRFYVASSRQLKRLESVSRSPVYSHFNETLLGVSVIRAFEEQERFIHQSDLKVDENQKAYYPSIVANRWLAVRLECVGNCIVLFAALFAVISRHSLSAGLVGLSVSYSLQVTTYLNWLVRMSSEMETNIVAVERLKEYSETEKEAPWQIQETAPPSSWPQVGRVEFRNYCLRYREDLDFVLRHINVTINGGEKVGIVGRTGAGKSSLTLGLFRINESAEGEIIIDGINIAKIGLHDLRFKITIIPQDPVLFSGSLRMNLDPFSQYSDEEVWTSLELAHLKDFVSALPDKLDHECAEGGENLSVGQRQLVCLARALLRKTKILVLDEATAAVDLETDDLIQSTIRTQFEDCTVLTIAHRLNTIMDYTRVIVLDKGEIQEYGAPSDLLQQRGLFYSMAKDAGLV

In the case of `COc1cc2c(cc1OC)CN(CCc1ccc(NC(=O)c3cccc4c(=O)c5cccc(OC)c5[nH]c34)cc1)CC2` [elacr, elacridar, reference compound], the ATP cell depletion [1] is reported as “Yes^[e]”.

With `c1ccc2c(-c3nc(N4CCOCC4)c4ccccc4n3)c3ccccc3cc2c1` [Compound 3 c, 4‐(2‐(Anthracen‐9‐yl)quinazolin‐4‐yl)morpholine] the “EC50 P-gp” value [2] was “not active” and the efflux ratio at 120 min, 100 μM [3] was 20.

With `c1ccc(CCNc2nc(-c3c4ccccc4cc4ccccc34)nc3ccccc23)cc1` [Compound 3 b, 2‐(Anthracen‐9‐yl)‐N‐phenethylquinazolin‐4‐amine] the “EC50 P-gp” value [2] was “not active”, the efflux ratio at 120 min, 100 μM [3] was 10.5 and the melting point was 236 to 238 °C (dec.).

For `COc1ccc(C(c2ccc(OC)cc2)c2nc(N3CCOCC3)c3ccccc3n2)cc1` [Compound 7 c], the P-gp interacting profile [4] was “P‐gp inhibitor; also recorded: pure inhibitor”, the EC50 [2] was 2130 ± 400 nM and the ATP cell depletion [1] was “do not inducing ATP cell depletion and No”. The “P app (BA/AB)” value [5] was 1.5 and the efflux ratio at 120 min, 100 μM [3] was < 2.

In the case of `COc1ccc(C(c2ccc(OC)cc2)c2nc(Nc3ccc(CCN4CCc5cc(OC)c(OC)cc5C4)cc3)c3ccccc3n2)cc1` [Compound 7 a, 2‐(Bis(4‐methoxyphenyl)methyl)‐N‐(4‐(2‐(6,7‐dimethoxy‐3,4‐dihydroisoquinolin‐2(1H)‐yl)ethyl)phenyl)quinazolin‐4‐amine], the EC50 [2] is reported as 110 ± 20 nM, the ATP cell depletion [1] is reported as “No” and the efflux ratio at 120 min, 100 μM [3] is reported as 32.9.

With `COc1ccc(-c2nc(NCCc3ccccc3)c3ccccc3n2)c(OC)c1OC` [Compound 4 b, N‐Phenethyl‐2‐(2,3,4‐trimethoxyphenyl)quinazolin‐4‐amine] the EC50 [2] was 1410 ± 250 nM, the ATP cell depletion [1] was “No” and the efflux ratio at 120 min, 100 μM [3] was 14.8. For the same compound, the EC50 [6] was 52000 ± 10100 nM.

For `COc1ccc(C(c2ccc(OC)cc2)c2nc(N3CCc4cc(OC)c(OC)cc4C3)c3ccccc3n2)cc1` [Compound 7 e, 2‐(Bis(4‐methoxyphenyl)methyl)‐4‐(6,7‐dimethoxy‐3,4‐dihydroisoquinolin‐2(1H)‐yl)quinazoline], the EC50 [2] was 160 ± 26 nM, the ATP cell depletion [1] was “No” and the efflux ratio at 120 min, 100 μM [3] was 8.4.

In the case of `COc1cc2c(cc1OC)CN(CCc1ccc(Nc3nc(-c4c(OC)c(OC)cc5ccccc45)nc4ccccc34)cc1)CC2` [Compound 6 a, N‐(4‐(2‐(6,7‐Dimethoxy‐3,4‐dihydroisoquinolin‐2(1H)‐yl)ethyl)phenyl)‐2‐(2,3‐dimethoxynaphthalen‐1‐yl)quinazolin‐4‐amine], the EC50 [2] is reported as 200 ± 40 nM, the ATP cell depletion [1] is reported as “No” and the efflux ratio at 120 min, 100 μM [3] is reported as 19.2.

In the case of `COc1cccc2c1C(=O)c1c(O)c3c(c(O)c1C2=O)C[C@@](O)(C(=O)CO)C[C@@H]3O[C@H]1C[C@H](N)[C@H](O)[C@H](C)O1` [Doxo, doxorubicin], the “viable cells, doxorubicin alone” value ([7]; HT29 cells, doxorubicin 10 μM) is reported as “significant decrease in viable cells”, the “Vmax of doxorubicin efflux” value [8, 14] is reported as 3.15 ± 0.07 µmol/min and the Km [8, 15] is reported as 0.53 ± 0.06 µM. The “intracellular doxorubicin retained, doxorubicin alone” value ([9]; HT29/DX cells compared with HT29 cells) was “retained a lower amount of doxorubicin”, the “Vmax of doxorubicin efflux” value [10, 14] was 8.05 ± 0.64 µmol/min and the Km [10, 15] was 0.52 ± 0.06 µM.

For `COc1cc2c(cc1OC)CN(c1nc(/C=C/c3cc(OC)c(OC)c(OC)c3)nc3ccccc13)CC2` [Compound 1 e, (E)‐4‐(6,7‐Dimethoxy‐3,4‐dihydroisoquinolin‐2(1H)‐yl)‐2‐(3,4,5‐trimethoxystyryl)quinazoline], the “cell viability, compound alone” value ([7]; HT29 (doxorubicin-sensitive) cells) was “did not significantly reduce cell viability”, the “effect on intracellular doxorubicin content” value ([9]; HT29/DX cells, 24 h, doxorubicin 10 μM + compound 100 nM-10 μM) was “progressively increased it” and the “effect on intracellular doxorubicin content” value [11] was “did not modify the intracellular drug content”. For the same compound, the “cell viability, compound alone” value ([12]; HT29/DX (doxorubicin-resistant) cells) was “did not significantly reduce cell viability” and the “viability with doxorubicin co-administration” value ([12]; HT29/DX cells, doxorubicin 10 μM + compound 10 μM) was “reduced at the same extent of doxorubicin‐sensitive cells”.

For `COc1cc2c(cc1OC)CN(c1nc(-c3c4ccccc4cc4ccccc34)nc3ccccc13)CC2` [Compound 3 e, 2‐(Anthracen‐9‐yl)‐4‐(6,7‐dimethoxy‐3,4‐dihydroisoquinolin‐2(1H)‐yl)quinazoline], the EC50 [2] was 1140 ± 200 nM, the ATP cell depletion [1] was “No” and the efflux ratio at 120 min, 100 μM [3] was 18.5.

For `COc1ccc(C(c2ccc(OC)cc2)c2nc(N3CCN(C)CC3)c3ccccc3n2)cc1` [Compound 7 d, 2‐(Bis(4‐methoxyphenyl)methyl)‐4‐(4‐methylpiperazin‐1‐yl)quinazoline], the EC50 [13] was 8620 ± 1600 nM, the EC50 [2] was 960 ± 180 nM and the ATP cell depletion [1] was “No”. For the same compound, the efflux ratio at 120 min, 100 μM [3] was 6.9 and the EC50 [6] was 43200 ± 8500 nM.

In the case of `COc1ccc(-c2nc(N3CCOCC3)c3ccccc3n2)c(OC)c1OC` [Compound 4 c, 4‐(2‐(2,3,4‐Trimethoxyphenyl)quinazolin‐4‐yl)morpholine], the EC50 [2] is reported as 9550 ± 1800 nM, the ATP cell depletion [1] is reported as “No” and the efflux ratio at 120 min, 100 μM [3] is reported as 3.8.

In the case of `COc1ccc2ccccc2c1-c1nc(N2CCN(C)CC2)c2ccccc2n1` [Compound 5 d, 2‐(2‐Methoxynaphthalen‐1‐yl)‐4‐(4‐methylpiperazin‐1‐yl)quinazoline], the EC50 [2] is reported as 6060 ± 1200 nM, the ATP cell depletion [1] is reported as “No” and the efflux ratio at 120 min, 100 μM [3] is reported as 5.4.

For `COc1cc2c(cc1OC)CN(CCc1ccc(NC(=O)c3cc(OC)c(OC)cc3NC(=O)c3cnc4ccccc4c3)cc1)CC2` [tariq, tariquidar, reference compound], the ATP cell depletion [1] was “Yes^[d]” and the efflux ratio at 120 min, 100 μM [3] was > 20.
